The source of these data is ChEMBL document CHEMBL1201862, “PubChem BioAssay data set” (2004).

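Following 48 hours of exposure in 96-well plates, responses at five concentrations were used to interpolate endpoints linearly. GI50 marks 50% less growth.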 The source made the active and inactive calls. Cut-off read from the data, not from the text of the source: active = GI50 up to about 1.1 µM and inactive = higher.

Test systems include ACHN; BT-549; CCRF-CEM; HCC 2998; HCT-15; HL-60; HOP-62; MDA-MB-231; MOLT-4; NCI/ADR-RES; OVCAR-3; OVCAR-4; OVCAR-5; SK-OV-3; SNB-19; SNB-75; UACC-257; UACC-62; RXF 393.
Assay in all cases: NCI tumour cell line growth inhibition, 48 h

Take `O=C(CCN1CCOCC1)Nc1ccc2sc3ccccc3c(=O)c2n1`: the GI50 was 35.5 µM (inactive) with ACHN; 28.7 µM (inactive) in the test with BT-549; 19.7 µM (inactive) in the test with CCRF-CEM; 33.9 µM (inactive) with HCC 2998; 33.9 µM with HCT-15; > 100 µM (inactive) in the test with HL-60. Further, the GI50 in the test with HOP-62 was 44.7 µM (inactive); in the test on MDA-MB-231, 35.6 µM (inactive); in the test with MOLT-4, > 10 µM (inactive); with NCI/ADR-RES, 43.4 µM (inactive); in the test with OVCAR-3, 47.9 µM (inactive); with OVCAR-4 it was 61.1 µM (inactive). Moreover, the GI50 with OVCAR-5 was > 100 µM (inactive); in the test on SK-OV-3, 47.6 µM (inactive); in the test on SNB-19, 49.2 µM (inactive); with SNB-75, 19.6 µM (inactive); in the test with UACC-257 it was 62.2 µM (inactive); in the test with UACC-62 it was 34.8 µM (inactive).

On to `[O-][N+]1(CC[N+]2([O-])CCCCC2)CCCCC1`, for which the GI50 in the test on ACHN is > 100 µM (inactive); with BT-549, > 100 µM (inactive); in the test on CCRF-CEM, > 100 µM (inactive); with HCT-15, over 100 µM; in the test with HL-60, > 100 µM (inactive); with HOP-62, > 100 µM (inactive). The GI50 in the test on MDA-MB-231, with MOLT-4, with NCI/ADR-RES, in the test on OVCAR-3, in the test with OVCAR-4 and in the test with OVCAR-5 was > 100 µM (inactive) each time. Moreover, the GI50 in the test with RXF 393, with SK-OV-3, in the test on SNB-19, in the test with SNB-75 and with UACC-62 was > 100 µM (inactive) each time.

On to `CCOC(=O)c1nc2ccccc2nc1Nc1cc(OC)c(OC)c(OC)c1`, for which the GI50 with ACHN was > 100 µM (inactive); in the test on BT-549, > 100 µM (inactive); with CCRF-CEM, > 100 µM (inactive); in the test with HCC 2998, > 100 µM (inactive); in the test on HCT-15, over 100 µM; in the test with HL-60, > 100 µM (inactive). For the same compound, the GI50 with HOP-62, in the test on MDA-MB-231, in the test with MOLT-4, with NCI/ADR-RES, in the test with OVCAR-3 and in the test with OVCAR-4 was > 100 µM (inactive) throughout. Further, the GI50 in the test on OVCAR-5 is > 100 µM (inactive); in the test on SK-OV-3, > 100 µM (inactive); in the test with SNB-19, > 100 µM (inactive); in the test on SNB-75, 43.6 µM (inactive); with UACC-62 it was > 100 µM (inactive).

For `O=C(OCc1ccccc1CN1CCOCC1)c1ccc(Br)cc1`, the GI50 in the test on ACHN was > 100 µM (inactive); in the test with BT-549 it was 74.8 µM (inactive); in the test with HCC 2998, 46.5 µM (inactive); with HCT-15, 57.1 µM; in the test with HOP-62, 72.3 µM (inactive); in the test on MDA-MB-231, 71.4 µM (inactive). Moreover, the GI50 in the test with NCI/ADR-RES was 42 µM (inactive); with OVCAR-3, 31.8 µM (inactive); in the test on OVCAR-4, 43.5 µM (inactive); in the test with OVCAR-5 it was 73.1 µM (inactive); in the test with RXF 393 it was > 100 µM (inactive); in the test on SK-OV-3, > 100 µM (inactive). Besides, the GI50 is > 100 µM (inactive) in the test with SNB-19, > 100 µM (inactive) in the test with SNB-75, 43.2 µM (inactive) in the test on UACC-257 and 55 µM (inactive) in the test on UACC-62.

Regarding `COc1ccc(-c2cc(-c3cc(F)c(Cl)cc3Cl)on2)cc1OC`, the GI50 with ACHN is 37.2 µM (inactive); with BT-549, 33 µM (inactive); with CCRF-CEM, 12.5 µM (inactive); in the test on HCT-15 it was 5.42 µM; in the test with HL-60, 4.48 µM (inactive); in the test with HOP-62, 15.6 µM (inactive). The GI50 in the test on MDA-MB-231 was 20.1 µM (inactive); with MOLT-4, 5.82 µM (inactive); in the test on NCI/ADR-RES, 11.4 µM (inactive); in the test on OVCAR-3, 11.8 µM (inactive); in the test on OVCAR-4 it was 10.1 µM (inactive); in the test with OVCAR-5, > 100 µM (inactive). Also, the GI50 in the test with RXF 393 was 8.07 µM (inactive); in the test on SK-OV-3, 44.6 µM (inactive); in the test on SNB-19 it was > 100 µM (inactive); in the test on SNB-75 it was 28.9 µM (inactive); with UACC-257 it was 22.4 µM (inactive).

On to `COc1cc(S(=O)(=O)Nc2ccc(-c3csc(/N=C\c4ccccc4)n3)cc2)ccc1Cl`, for which the GI50 is > 100 µM (inactive) in the test with ACHN; 41.4 µM (inactive) in the test with BT-549; 17 µM (inactive) in the test with CCRF-CEM; over 100 µM in the test with HCT-15; 25.6 µM (inactive) in the test on HL-60; 41.4 µM (inactive) with HOP-62. The GI50 in the test with MDA-MB-231 is 37.2 µM (inactive); in the test on MOLT-4 it was 12.7 µM (inactive); in the test with NCI/ADR-RES, > 100 µM (inactive); with OVCAR-3 it was 56.9 µM (inactive); with OVCAR-4 it was 79.4 µM (inactive); with OVCAR-5, > 100 µM (inactive). In addition, the GI50 in the test with RXF 393 is 1.44 µM (inactive); with SK-OV-3, > 100 µM (inactive); with SNB-19, 31.6 µM (inactive); with SNB-75 it was 62.7 µM (inactive); in the test on UACC-62, 29.9 µM (inactive).

For `S=C(Nc1cc(Cl)c(Cl)cc1Cl)SCc1ccccc1`, the GI50 with ACHN was 20.5 µM (inactive); in the test with BT-549 it was 26.2 µM (inactive); with HCT-15 it was 18.1 µM; in the test on HL-60, 18.8 µM (inactive); in the test with HOP-62, 26 µM (inactive); in the test on MDA-MB-231, 13.1 µM (inactive). The GI50 is 22.8 µM (inactive) in the test with MOLT-4; 24.9 µM (inactive) in the test with NCI/ADR-RES; 21.8 µM (inactive) in the test on OVCAR-3; 22.2 µM (inactive) in the test on OVCAR-4; 22.8 µM (inactive) in the test with OVCAR-5; 54.8 µM (inactive) in the test on RXF 393. The GI50 is 56 µM (inactive) with SK-OV-3; 28.6 µM (inactive) with SNB-19; 39.3 µM (inactive) in the test with SNB-75; 19 µM (inactive) in the test with UACC-257; 66.5 µM (inactive) in the test with UACC-62.

Consider `O=C(Cn1c(=O)oc2ccc(C(=O)c3cccc(Cl)c3)cc21)c1ccccc1`, for which the GI50 in the test with ACHN was > 100 µM (inactive); in the test with BT-549 it was 18.1 µM (inactive); in the test on CCRF-CEM, > 100 µM (inactive); with HCC 2998 it was 20.1 µM (inactive); with HCT-15 it was 41.2 µM; with HL-60, 19.3 µM (inactive). Further, the GI50 with HOP-62 is > 100 µM (inactive); in the test on MDA-MB-231, > 100 µM (inactive); in the test on MOLT-4 it was 49.4 µM (inactive); in the test with NCI/ADR-RES, > 100 µM (inactive); with OVCAR-3, > 100 µM (inactive); in the test with OVCAR-4, 12.8 µM (inactive). Besides, the GI50 is > 100 µM (inactive) with OVCAR-5; 42.1 µM (inactive) in the test with SK-OV-3; > 10 µM (inactive) in the test with SNB-19; 25.1 µM (inactive) with SNB-75; 19.5 µM (inactive) with UACC-257; > 100 µM (inactive) with UACC-62.

`C#CCn1c(=O)ccn(/C(=C/C(=O)OCC)C(=O)OCC)c1=O`: the GI50 is 1.59 µM (inactive) in the test on ACHN; 10.5 µM (inactive) in the test on BT-549; 0.61 µM (active) in the test on CCRF-CEM; 1.06 µM with HCT-15; 3.44 µM (inactive) in the test with HL-60; 13 µM (inactive) in the test on HOP-62. Moreover, the GI50 was 14.8 µM (inactive) with MDA-MB-231; 3.43 µM (inactive) in the test with MOLT-4; 3.7 µM (inactive) in the test with NCI/ADR-RES; 6.35 µM (inactive) with OVCAR-3; 4.62 µM (inactive) in the test with OVCAR-4; 7.13 µM (inactive) in the test on OVCAR-5. Besides, the GI50 with RXF 393 was 1.36 µM (inactive); in the test on SK-OV-3, 35.2 µM (inactive); in the test on SNB-19, 19 µM (inactive); in the test on SNB-75 it was 20.8 µM (inactive); in the test with UACC-257, 15 µM (inactive); in the test on UACC-62, 14 µM (inactive).

Take `C/C=C/CC(C(=O)OCC)(N(C)C(=O)OC(C)(C)C)S(=O)(=O)c1ccc(C)cc1` (stereo not given): the GI50 was > 100 µM (inactive) in the test with ACHN; > 100 µM (inactive) in the test with BT-549; > 100 µM (inactive) in the test on CCRF-CEM; 61.9 µM in the test on HCT-15; 45.3 µM (inactive) in the test on HL-60; > 100 µM (inactive) in the test with HOP-62. The GI50 with MDA-MB-231 is > 100 µM (inactive); in the test on MOLT-4 it was > 100 µM (inactive); in the test on NCI/ADR-RES, 69.2 µM (inactive); in the test on OVCAR-3 it was > 100 µM (inactive); in the test on OVCAR-4 it was > 100 µM (inactive); with OVCAR-5 it was > 100 µM (inactive). Besides, the GI50 in the test on RXF 393 was > 100 µM (inactive); with SNB-19, > 100 µM (inactive); with UACC-257, > 100 µM (inactive); with UACC-62, 61.9 µM (inactive).

`COc1ccc(N2C(=O)/C(=C/c3ccc(N(CCC#N)CCC#N)cc3)N=C2c2ccccc2)c(OC)c1`: the GI50 with ACHN was > 100 µM (inactive); in the test on BT-549, > 100 µM (inactive); in the test with CCRF-CEM, 21.9 µM (inactive); in the test on HCC 2998 it was > 100 µM (inactive); with HCT-15 it was 40.2 µM; in the test on HL-60 it was 30.3 µM (inactive). Further, the GI50 in the test on MDA-MB-231 was > 100 µM (inactive); in the test on MOLT-4, 28.2 µM (inactive); in the test on NCI/ADR-RES, 52.8 µM (inactive); in the test with OVCAR-3 it was 98.4 µM (inactive); in the test on OVCAR-4, > 100 µM (inactive); in the test on OVCAR-5, > 100 µM (inactive). The GI50 in the test with SK-OV-3 is > 100 µM (inactive); in the test with SNB-19, > 100 µM (inactive); in the test on SNB-75 it was 89.5 µM (inactive); with UACC-257, > 100 µM (inactive); with UACC-62 it was > 100 µM (inactive).

For `CCOC(=O)C1C(c2ccc(OC)cc2)c2c(n[nH]c2O)CC1(C)O` (stereo not given), the GI50 with ACHN was > 100 µM (inactive); with BT-549, > 100 µM (inactive); in the test on CCRF-CEM, > 100 µM (inactive); in the test with HCC 2998, > 100 µM (inactive); in the test with HCT-15, over 100 µM; in the test on HL-60, > 100 µM (inactive). Moreover, the GI50 with HOP-62, in the test with MDA-MB-231, in the test on MOLT-4, in the test on NCI/ADR-RES, with OVCAR-3 and in the test with OVCAR-4 was > 100 µM (inactive) throughout. The GI50 with OVCAR-5, in the test with SNB-19, with SNB-75, with UACC-257 and in the test with UACC-62 was > 100 µM (inactive) each time.
